Results published in patent US10676468B2, “N-(3-heteroarylaryl)-4-arylarylcarboxamides and analogs as hedgehog pathway inhibitors and use thereof” (IMPACT Therapeutics, Inc., priority 2012, dated 2020).

Legend:
[1] = system: Hedgehog Signaling Pathway; assay: SAG-induced differentiation of C3H10T1/2 cells into osteoblastic cells, intracellular alkaline phosphatase activity; format: cell-based, mouse; details: Mus musculus, C3H 10T1/2, 120 h, 1 μM SAG, 5 days, alkaline phosphatase activity (OD405), read-out: IC50 values of compounds that inhibit Hh pathway
From the text: (§1) The Application of SAG to Induce Pluripotent Mesenchymal Mouse Embryonic Cell C3H/10T1/2 to Differentiate into Osteoblastic Cells for the Determination of the Inhibitory Activity of N-(3-(1H-benzo[d]imidazol-2-yl)-4-chlorophenyl)-2-methyl-4-((2S,6R)-2,6-dimethylmorpholino)benzamide and Analogs on Hedgehog Signaling Pathway
The intracellular alkaline phosphatase activity is a reliable indication of the differentiation process. Therefore this enzymatic activity can be used to monitor the activity of hedgehog pathway inhibitors.
The C3H10T1/2 cells were grown in DMEM medium supplemented with 10% fetal bovine serum (FBS, Hyclone) at 37° C. with 5% CO2. 10000 cells were sown to each well of a 96-well microplate a day before the experiment and grown overnight. At the day of experiment, the inducing medium and inhibitor solutions were prepared as follows: the reference compound and testing compounds were serially diluted 1 to 3 and 1 to 10 in DMSO to seven concentrations with the eighth concentration being DMSO. A 10-fold dilution was prepared by mixing 10 μL of the DMSO dilution with 90 μL of fresh growing medium. […] Pre-sown cells were taken out from incubator and the medium was removed. To each well, 180 μL inducing medium was added and followed immediately with 20 μL of testing or reference compound dilutions. The testing compound concentrations are between 10 μM and 1 nM. The cells were then return to CO2 incubator to grow additional 5 days at 37° C.
(§2) After incubating for 5 days, the cells were taken out and intracellular alkaline phosphatase activity was tested. The alkaline phosphatase activity was measured as follows:
1) Preparation of Substrate Solution:
(§3) Solution A: A 0.5 mM MgCl2 (Sigma Prod. No. M-0250) solution was prepared.
(§4) After the pH value was adjusted to 9.8 with 5 M HCl at 37° C., the total volume was adjusted to 100 mL.
(§5) After it is completely dissolved the total volume was adjusted to 10 mL with the final concentration being 1 mM.
Substrate reaction medium: To 10 mL of solution B, 250 μL of solution A and 200 μL of solution C were added, and mixed well.
2) the Measurement of Intracellular Alkaline Phosphatase Activity:
(§6) After taking out the cells from the incubator, the cell culture medium was removed and cells were washed twice with PBS. 20 μL of lysis solution (0.2% Triton solution) was added to each well. After being shaken for 30 min at room temperature, each well of cells received 80 μL of substrate reaction medium. The microplate was placed immediately into a VariSkan Flashplate reader and absorbance at OD405 was read as background reading. The plate was replaced back to cell culture incubator at 37° C. for additional 30 min and the absorbance was read again using VariSkan Flash plate reader at OD405.
(§7) The data were analyzed by subtracting the background reading from the reading at 30 min, and the obtained numbers were plotted and analyzed with Prism 5 software (GraphPad). The phosphatase activity (calculated OD405) was plotted against the log concentration of testing compound, and the obtained plot was fitted with non-linear curve fitting equation to calculate IC50 values. The curve fitting equation is Y=Bottom+(Top−Bottom)/(1+10^((X−Log IC50))). X is the logarithm of concentration. Y is the measure of alkaline phosphatase activity (OD405).
(§8) The calculated IC50 value is a measurement of the inhibitory activity of compound to Hh pathway.

[2] = system: Hedgehog Signaling Pathway; assay: SHH-induced differentiation of C3H10T1/2 cells into osteoblastic cells, intracellular alkaline phosphatase activity; format: cell-based, mouse; details: Mus musculus, C3H 10T1/2, 120 h, 10 nM SHH-N, 5 days, alkaline phosphatase activity (OD405), read-out: IC50 values of compounds that inhibit Hh pathway
Procedure: as §1, with “SHH” for “SAG”, “C3H10T1/2” for “C3H/10T1/2”
The C3H10T1/2 cells were grown in DMEM medium supplemented with 10% fetal bovine serum (FBS, Hyclone) at 37° C. with 5% CO2. 10000 cells were sown to each well of a 96-well microplate a day before the experiment and grown overnight. […] The reference compound and testing compounds were serially diluted 1 to 3 and 1 to 10 in DMSO to seven concentrations with the eighth concentration being DMSO. A 10-fold dilution was prepared by mixing 10 μL of the DMSO dilutions with 90 μL of fresh growing medium. Pre-sown cells were taken out from incubator and the medium was removed. To each well, 180 μL of inducing medium containing 10 nM of SHH-N was added and followed immediately with 20 μL of 10× testing or reference compound dilutions. The testing compound concentrations are between 10 μM and 10 nM. The cells were then returned to CO2 incubator to grow additional 5 days at 37° C.
as §2
3) Preparation of Substrate Solution:
as §3, §4, §5
Substrate reaction medium: to 10 mL of solution B, 250 μL of solution A and 200 μL of solution C were added, and mixed well.
4) The Measurement of Intracellular Alkaline Phosphatase Activity:
as §6
as §7, with “Y=Bottom+(Top−Bottom)/(1+10^(X−Log IC50)).” for “Y=Bottom+(Top−Bottom)/(1+10^((X−Log IC50))).”
as §8

Row | Structure (SMILES) | IC50 [1] [nM] | IC50 [2] [nM]
1 | Cc1cc(N2CCCCC2)ccc1C(=O)Nc1ccc(Cl)c(-c2nc3ccccc3[nH]2)c1 [Example 31, N-(3-(1H-benzo[d]imidazol-2-yl)-4-chlorophenyl)-2-methyl-4-(piperidin-1-yl)benzamide] | 229 | 44
2 | C[C@@H]1CN(c2ccc(C(=O)Nc3ccc(Cl)c(-c4nc5ccccc5[nH]4)c3)c(N)c2)C[C@H](C)O1 [Example 33, N-(3-(1H-benzo[d]imidazol-2-yl)-4-chlorophenyl)-2-amino-4-((2S,6R)-2,6-dimethylmorpholino)benzamide] | 83 | 22
3 | C[C@@H]1CN(c2cc(Cl)c(C(=O)Nc3ccc(Cl)c(-c4nc5ccccc5[nH]4)c3)cn2)C[C@H](C)O1 [Example 36, N-(3-(1H-benzo[d]imidazol-2-yl)-4-chlorophenyl)-4-chloro-6-((2S,6R)-2,6-dimethylmorpholino)nicotinamide] | 362 | 95
4 | O=C(Nc1ccc(Cl)c(-c2nc3ccccc3[nH]2)c1)C1CCC(c2ccccc2)CC1 (stereo not shown) [Example 44, N-(3-(1H-benzo[d]imidazol-2-yl)-4-chlorophenyl)-4-phenylcyclohexanecarboxamide] | 139 | 18
5 | Cc1cc(-c2ccc(C(F)(F)F)cc2)ccc1C(=O)Nc1cccc(-c2nc3ccccc3[nH]2)c1 [Example 45, N-(3-(1H-benzo[d]imidazol-2-yl)phenyl)-3-methyl-4′-(trifluoromethyl)biphenyl-4-carboxamide] | 284 | 20
6 | Cc1cc(-c2ccc(C(F)(F)F)cc2)ccc1C(=O)Nc1ccc(Cl)c(-c2ncc(-c3cccnc3)[nH]2)c1 [Example 51, N-(3-(5-(pyridin-3-yl)-1H-imidazol-2-yl)-4-chlorophenyl)-3-methyl-4′-(trifluoromethyl)biphenyl-4-carboxamide] | > 10000 | 77
7 | Cc1cc(-c2ccc(C(F)(F)F)cc2)ccc1C(=O)Nc1ccc(Cl)c(-c2nnc3ccccn23)c1 [Example 52, N-(3-([1,2,4]triazolo[4,3-a]pyridin-3-yl)-4-chlorophenyl)-3-methyl-4′-(trifluoromethyl)biphenyl-4-carboxamide] | 740 | 465
8 | Cc1cc(-c2ccc(C(F)(F)F)cc2)ccc1C(=O)Nc1ccc(Cl)c(-c2nnc3ncccn23)c1 [Example 53, N-(3-([1,2,4]triazolo[4,3-a]pyrimidin-3-yl)-4-chlorophenyl)-3-methyl-4′-(trifluoromethyl)biphenyl-4-carboxamide] | > 10000 | > 10000
9 | Cc1cc(-c2ccc(C(F)(F)F)cc2)ccc1C(=O)Nc1ccc(Cl)c(-c2nnc3cnccn23)c1 [Example 54, N-(3-([1,2,4]triazolo[4,3-a]pyrazin-3-yl)-4-chlorophenyl)-3-methyl-4′-(trifluoromethyl)biphenyl-4-carboxamide] | > 10000 | > 10000
10 | Cc1cc(-c2ccc(C(F)(F)F)cc2)ccc1C(=O)Nc1cccc(-c2cn3ccccc3n2)c1 [Example 56, N-(3-(imidazo[1,2-a]pyridin-2-yl)phenyl)-3-methyl-4′-(trifluoromethyl)biphenyl-4-carboxamide] | 2370 | 189
11 | C[C@@H]1CN(c2ccc(C(=O)Nc3cccc(-c4cn5cccnc5n4)c3)cn2)C[C@H](C)O1 [Example 57, N-(3-(imidazo[1,2-a]pyrimidin-2-yl)phenyl)-6-((2S,6R)-2,6-dimethylmorpholino)nicotinamide] | > 10000 | > 10000
12 | C[C@@H]1CN(c2ccc(C(=O)Nc3ccc(Cl)c(-c4nnc5cnccn45)c3)cn2)C[C@H](C)O1 [Example 58, N-(3-([1,2,4]triazolo[4,3-a]pyrazin-3-yl)-4-chlorophenyl)-6-((2S,6R)-2,6-dimethylmorpholino)nicotinamide] | > 10000 | > 10000

Continued, values first:

Row | IC50 [1] [nM] | IC50 [2] [nM] | Structure (SMILES)
13 | 263 | 162 | C[C@@H]1CN(c2ccc3c(=O)n(-c4ccc(Cl)c(-c5nc6ccccc6[nH]5)c4)cnc3c2)C[C@H](C)O1 [Example 34, 3-(3-(1H-benzo[d]imidazol-2-yl)-4-chlorophenyl)-7-((2S,6R)-2,6-dimethylmorpholino)quinazolin-4(3H)-one]
14 | 167 | 52 | Cc1cc(C(=O)Nc2ccc(Cl)c(-c3nc4ccccc4[nH]3)c2)cnc1N1C[C@@H](C)O[C@@H](C)C1 [Example 37, N-(3-(1H-benzo[d]imidazol-2-yl)-4-chlorophenyl)-5-methyl-6-((2S,6R)-2,6-dimethylmorpholino)nicotinamide]
15 | 27 | 13 | Cc1cc(-c2cccnc2)ccc1C(=O)Nc1ccc(Cl)c(-c2nc3ccccc3[nH]2)c1 [Example 40, N-(3-(1H-benzo[d]imidazol-2-yl)-4-chlorophenyl)-2-methyl-4-(pyridin-3-yl)benzamide]
16 | 99 | 32 | Cc1cc(-c2ccoc2)ccc1C(=O)Nc1ccc(Cl)c(-c2nc3ccccc3[nH]2)c1 [Example 41, N-(3-(1H-benzo[d]imidazol-2-yl)-4-chlorophenyl)-2-methyl-4-(furan-3-yl)benzamide]
17 | 230 | 337 | Cc1cc(-c2ccsc2)ccc1C(=O)Nc1ccc(Cl)c(-c2nc3ccccc3[nH]2)c1 [Example 42, N-(3-(1H-benzo[d]imidazol-2-yl)-4-chlorophenyl)-2-methyl-4-(thiophen-3-yl)benzamide]
18 | > 10000 | > 10000 | Cc1cc(-c2ccc(C(F)(F)F)cc2)ccc1C(=O)N(C)c1ccc(Cl)c(-c2nc3ccccc3[nH]2)c1 [Example 48, N-(3-(1H-benzo[d]imidazol-2-yl)-4-chlorophenyl)-N,3-dimethyl-4′-(trifluoromethyl)biphenyl-4-carboxamide]
19 | > 10000 | > 10000 | Cc1cc(-c2ccc(C(F)(F)F)cc2)ccc1C(=O)Nc1cccc(-c2cn3cccnc3n2)c1 [Example 55, N-(3-(imidazo[1,2-a]pyrimidin-2-yl)phenyl)-3-methyl-4′-(trifluoromethyl)biphenyl-4-carboxamide]
20 | > 10000 | > 10000 | Cc1cc(-c2ccc(C(F)(F)F)cc2)ccc1C(=O)Nc1cc(-c2nc3ccccc3[nH]2)ccn1 [Example 61, N-(4-(1H-benzo[d]imidazol-2-yl)pyridin-2-yl)-3-methyl-4′-(trifluoromethyl)biphenyl-4-carboxamide]
